Results on 18 compounds are retold here after US4695573A (Hoechst-Roussel Pharmaceuticals Inc., priority 1985, dated 1987).

Experiment [1] has as its system cholinergically deficient memory. Nature of the experiment: Dark Avoidance Assay (block of scopolamine-induced memory impairment). It is filed as in vivo, mice. The note with it: Mus musculus, read-out: % of Animals Greater than Scopolamine; for responders at 1.25 mg/kg: dose 1.25 mg/kg of body weight; for responders at 5 mg/kg: dose 5.0 mg/kg of body weight; for responders at 2.5 mg/kg: dose 2.5 mg/kg of body weight; for responders at 0.16 mg/kg: dose 0.16 mg/kg of body weight. The method, then: In this assay mice are tested for their ability to remember an unpleasant stimulus for a period of 24 hours. A mouse is placed in a chamber that contains a dark compartment; a strong incandescent light drives it to the dark compartment, where an electric shock is administered through metal plates on the floor. The animal is removed from the testing apparatus and tested again, 24 hours later, for the ability to remember the electric shock.
If scolopamine, an anticholinergic that is known to cause memory impairment, is administered before an animal's initial exposure to the test chamber, the animal re-enters the dark compartment shortly after being placed in the test chamber 24 hours later.

For the next experiment, the target named is acetylcholinesterase (Homo sapiens, UniProt P22303). Nature of the experiment: Cholinesterase Inhibition Assay (photometric method of Ellman et al.). The experiment is classed as biochemical.
Where [2] appears, read: mice, dose 0.63 mg/kg of body weight, retest after 24 hours.
The mark [3] stands for this setting: photometric method of Ellman, read-out: Cholinesterase Inhibition IC50.

pIC50: −log10 of the molar value. Counter-ions that a name gives are not always drawn. Like-named read-outs stand apart in the source and are kept apart here.

Sequence of acetylcholinesterase (P22303 32-614): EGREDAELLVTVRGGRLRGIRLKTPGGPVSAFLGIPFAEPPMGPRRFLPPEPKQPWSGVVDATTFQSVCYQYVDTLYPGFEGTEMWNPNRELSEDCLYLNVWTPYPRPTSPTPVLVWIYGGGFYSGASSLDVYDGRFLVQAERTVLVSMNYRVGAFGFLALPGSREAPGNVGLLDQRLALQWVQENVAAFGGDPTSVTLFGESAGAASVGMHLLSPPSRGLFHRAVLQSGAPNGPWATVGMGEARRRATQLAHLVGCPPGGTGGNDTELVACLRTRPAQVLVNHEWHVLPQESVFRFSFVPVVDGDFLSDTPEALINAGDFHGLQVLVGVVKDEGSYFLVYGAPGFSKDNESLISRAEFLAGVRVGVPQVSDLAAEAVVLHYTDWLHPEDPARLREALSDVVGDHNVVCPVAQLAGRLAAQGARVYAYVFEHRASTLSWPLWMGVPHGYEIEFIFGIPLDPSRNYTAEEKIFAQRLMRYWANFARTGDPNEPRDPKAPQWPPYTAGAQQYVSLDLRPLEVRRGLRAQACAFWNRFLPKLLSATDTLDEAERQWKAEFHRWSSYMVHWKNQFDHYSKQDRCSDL

For `Nc1c2c(nc3ccccc13)CCCC2` [Tacrine, 9-Amino-1,2,3,4-tetrahydroacridine, reference compound], in experiment [1] (24 h), the responders at 0.63 mg/kg was 13%. As to `OC1CCCc2nc3ccccc3c(NCc3ccc(F)cc3)c21` (stereo not shown) [9-(4-fluorobenzylamino)-1,2,3,4-tetrahydroacridin-1-ol], the pIC50 (commonly −log10 of the IC50, conventionally taken in molar units) against acetylcholinesterase was 3.96. Further, in experiment [1] (mice, retest after 24 hours), the responders at 1.25 mg/kg came out at 33%. Consider `Nc1c2c(nc3cc(C(F)(F)F)ccc13)CCCC2O` (stereo not shown) [9-Amino-1,2,3,4-tetrahydro-6-trifluoromethylacridin-1-ol], for which, in experiment [1] (setting [2]), the responders at 0.63 mg/kg came to 71%. On to `OC1CCCc2nc3ccccc3c(NCc3c(F)c(F)c(F)c(F)c3F)c21` (stereo not shown) [9-[(2,3,4,5,6-Pentafluorobenzyl)amino]-1,2,3,4-tetrahydroacridin-1-ol, fumarate], for which the pIC50 on acetylcholinesterase was 3.46. Also, in experiment [1] (mice, retest after 24 hours), the responders at 5 mg/kg turned out to be 20%. Turning to `Nc1c2c(nc3ccccc13)CCCC2=O` [9-Amino-3,4-dihydroacridin-1(2H)--one, 9-Amino-3,4-dihydroacridin-1(2H)-one], the pIC50 on acetylcholinesterase (setting [3]) was 3.60.

In turn, `OC1CCCc2nc3ccccc3c(NCc3ccccc3F)c21` (stereo not shown) [9-(2-Fluorobenzylamino)-1,2,3,4-tetrahydroacridin-1-ol maleate] gave a pIC50 on acetylcholinesterase of 3.68. Also, in experiment [1] (mice, retest after 24 hours), the responders at 2.5 mg/kg was 27%.

Turning to `O=C1CCCc2nc3cc(F)ccc3c(NCc3ccccc3)c21` [9-Benzylamino-3,4-dihydro-6-fluoroacridin-1(2H)-one, maleate], the responders at 5 mg/kg in experiment [1] (mice, retest after 24 hours) was determined as 40%. Regarding `OC1CCCc2nc3ccccc3c(NCc3ccc(C(F)(F)F)cc3)c21` (stereo not shown) [1,2,3,4-Tetrahydro-9-(4-trifluoromethylbenzylamino)acridin-1-ol], the negative-log IC50 (pIC50) on acetylcholinesterase was 3.26. Besides, in experiment [1] (mice, retest after 24 hours), the responders at 0.16 mg/kg turned out to be 22%. As for `OC1CCCc2nc3ccccc3c(NCc3ccccc3)c21` (stereo not shown) [9-Benzylamino-1,2,3,4-tetrahydroacridin-1-ol], in experiment [1] (mice, retest after 24 hours), the responders at 1.25 mg/kg is 27%.

For the compound `O=C1CCCc2nc3ccccc3c(NCCCC(c3cccc(F)c3)c3cccc(F)c3)c21` [3,4-Dihydro-9-[4,4-bis(3-fluorophenyl)butylamino]acridin-1(2H)-one], the pIC50 on acetylcholinesterase is 5.72. Also, in experiment [1] (mice, retest after 24 hours), the responders at 5 mg/kg turned out to be 40%.

`OC1CCCc2nc3ccccc3c(NCc3ccccc3Cl)c21` (stereo not shown) [9-(2-Chlorobenzylamino)-1,2,3,4-tetrahydroacridin-1-ol]: at acetylcholinesterase, the pIC50 was 3.89. Besides, the responders at 0.31 mg/kg in experiment [1] (mice, dose 0.31 mg/kg of body weight, retest after 24 hours) is 27%. For the compound `Nc1c2c(nc3ccccc13)CCC=C2` [9-Amino-3,4-dihydroacridine], at acetylcholinesterase, the pIC50 was 5.19. The responders at 2.5 mg/kg in experiment [1] (mice, retest after 24 hours) worked out at 20%. Compound `OC1CCCc2nc3ccccc3c(NCc3ccccc3C(F)(F)F)c21` (stereo not shown) [1,2,3,4-Tetrahydro-9-(2-trifluoromethylbenzylamino)acridin-1-ol] had a negative-log IC50 (pIC50) at acetylcholinesterase of 3.04. Further, the responders at 0.16 mg/kg in experiment [1] (mice, retest after 24 hours) was 38%.

In the case of `CC[C@@H]1C(=O)OC[C@@H]1Cc1cncn1C` [Pilocarpine, reference compound], the responders at 5 mg/kg in experiment [1] (mice, retest after 24 hours) was 13%.

For `O=C1CCCc2nc3ccccc3c(NCCCC(c3ccccc3)c3ccccc3)c21` [3,4-Dihydro-9-(4,4-diphenylbutylamino)acridin-1(2H)-one], the pIC50 against acetylcholinesterase is 4.89. Moreover, in experiment [1] (setting [2]), the responders at 0.63 mg/kg was 50%. `COc1ccccc1CNc1c2c(nc3ccccc13)CCCC2O` (stereo not shown) [9-(2-Methoxybenzylamino)-1,2,3,4-tetrahydroacridin-1-ol] showed a pIC50 against acetylcholinesterase of 3.82. Besides, in experiment [1] (mice, dose 0.21 mg/kg of body weight, retest after 24 hours), the responders at 0.21 mg/kg is 33%. Consider `Nc1c2c(nc3ccccc13)CCCC2O` (stereo not shown) [9-Amino-1,2,3,4-tetrahydroacridin-1-ol], for which, in experiment [1] (setting [2]), the responders at 0.63 mg/kg stood at 33%. On to `OC1CCCc2nc3ccccc3c(NCCc3ccccc3)c21` (stereo not shown) [9-Phenethylamino-1,2,3,4-tetrahydroacridin-1-ol], for which, at acetylcholinesterase (setting [3]), the pIC50 is 3.62.
